Assay results: paper PMC8699718, “A structurally conserved site in AUP1 binds the E2 enzyme UBE2G2 and is essential for ER-associated degradation” (PLoS Biology, 2021)

How the values were obtained:
Type in all cases: cell-based, human
[1] = tested on: UBE2G2; experiment: UBE2G2 levels in HT1080 cells loaded with oleic acid; conditions: HT1080, 200 μM oleic acid
Protocol: Plasmid transfections were carried out using PolyFect (Qiagen, Germantown, MD, USA) or JetPrime (Polyplus, New York, NY, USA) reagents. For CHX chase experiments, approximately 24 hours following plasmid transfection, cells were treated with 50 μg/mL CHX in complete media for the indicated times. For lipid droplet experiments, cells were treated with 200 μM oleic acid (Millipore Sigma) for 16 hours, beginning 24 hours following transfection. For assessment of GFP^u stability, cells were cultured in DMEM supplemented with 10% FetalPlex animal serum complex (Gemini Bio, West Sacramento, CA, USA) and treated with 50 μM emetine for the indicated times to inhibit protein synthesis. […] Clarified lysates or immunoprecipitates were denatured by heating in NuPAGE LDS Sample Buffer with β-mercaptoethanol at 70°C for 10 minutes, resolved on Bis-Tris polyacrylamide gels in NuPAGE MES or MOPS SDS running buffer and analyzed by western blotting. Proteins were detected using Clarity Western ECL (Bio-Rad, Hercules, CA, USA), Radiance Q (Azure Biosystems, Dublin, CA, USA), or SuperSignal Femto West (Thermo Scientific, Waltham, MA, USA) ECL reagents and a c280 Imager (Azure Biosystems) or autoradiography. […]

[2] = tested on: AUP1:UBE2G2; experiment: co-IP of AUP1 with transfected MYC-UBE2G2, +/- oleic acid; conditions: WT HT1080, oleic acid loading, three experiments, reviewer response
From the text: (§1) page 10: Major points: The phenotypes they show are strong but it would be nice to see the initial observations repeated in other cell lines. […] We have now generated HEK293 AUP1 KO cell lines and have recapitulated our initial results on domain requirements for both NHK and RI332 (Fig 1G-H, Fig 2C-D). We also provide data that E2 loss similarly occurs in these HEK293 AUP1 KO cells and that E2 stability can be restored by GFP-G2BR (Fig S5D and S5E). To extend our observations beyond HT1080 and HEK293, we also generated and examined M17 AUP1 KO cells, and observed a similar destabilization of UBE2G2 with loss of AUP1. […] Although, it is possible that the stability of UBE2G2 is due to the level of AUP1 in these cells, it is not clear whether the G2BR of AUP1 is always available for UBE2G2 binding and whether AUP1 acts as a sink for UBE2G2 when associated with lipid droplets. […] They can then compare the 'pulldown levels' of AUP1 and gp78 to the amounts of protein in the reference binding domains in (Figure 6). […] Alternatively, NHK degradation may be reduced under increasing Oleic acid levels but UBE2G2 binding is not affected. […] We have now loaded cells with oleic acid and assessed E2 levels and NHK degradation (Fig S5A and Fig S5B). […]

[3] = tested on: gp78:UBE2G2; experiment: co-IP of gp78 with transfected MYC-UBE2G2, +/- oleic acid; conditions: WT HT1080, oleic acid loading, three experiments, reviewer response
From the text: as §1

Compound: CCCCCCCC/C=C\CCCCCCCC(=O)O [oleic acid]
- effect on UBE2G2 levels [1]: affected neither UBE2G2 levels
- decrease of AUP1 co-association with MYC-UBE2G2 [2]: ~ 27%
- decrease of gp78 co-association with MYC-UBE2G2 [3]: ~ 20%
